Measured values from US9200286B2 (THE RESEARCH FOUNDATION FOR THE STATE UNIVERSITY OF NEW YORK, priority 2010, dated 2015).
Like-named read-outs stand apart in the source and are kept apart here.

Experiments:
GluA2Qflip AMPA receptor = GluA2Qflip AMPA receptor (Rattus norvegicus, UniProt P19491); conditions: for Ki: from A/A(I) vs inhibitor concentration; for inhibition by A/A(I), ratio of whole-cell current amplitude in absence and presence of aptamer: 1 μM aptamer (FIG. 3, FIG. 5)
Method: The putative inhibitory property of the four sequences was then functionally tested by the use of whole-cell current recording with GluA2Qflip expressed in HEK-293 cells. […] The current was recorded at −60 mV, pH 7.4 and 22° C. with the same HEK-293 cells expressing GluA2Qflip that were used for selection.
The procedure for whole-cell current recording used to assay putative aptamers is known in the art. For the present invention, all recordings were at −60 mV and 22° C. The recording electrode was filled with the buffer (in mM): 110 CsF, 30 CsCl, 4 NaCl, 0.5 CaCl2, 5 EGTA, and 10 HEPES (pH 7.4 adjusted by CsOH). The extracellular buffer composition used is described supra. All other buffers used were previously described. The whole-cell current was recorded using an Axopatch 200B amplifier at a cutoff frequency of 2-20 kHz by a built-in, four-pole Bessel filter and digitized at 5-50 kHz sampling frequency using a Digidata 1322A (Molecular Devices). pClamp 8 (Molecular Devices, Sunnyvale Calif.) was used for data acquisition.
Using whole-cell recording, the putative inhibitory property for each aptamer was tested with HEK 293 cells expressing GluA2Qflip receptors and expressed as the ratio of the whole-cell current amplitude in the absence and presence of an aptamer, that is, A/A(I). The current was recorded at −60 mV, pH 7.4 and 22° C. with the same HEK-293 cell expressing GluA2Qflip.
Selected RNA sequences were assayed using whole-cell current recording with GluA2Qflip. […] The third round of the library or “pool 3” at 1 μM was used as a control. The ‘*’ indicates P≦0.05 from the two-tailed Student's t test (H0: μ=μ0=1, 1 being the theoretical value of no inhibition, marked as the dashed line).
The ratio of the whole-cell current amplitude in the absence and presence of a putative aptamer or A/A(I) as a function of aptamer concentration was used to independently measure inhibition constants (29), as illustrated in Equations 7a and 7b (29). These equations were derived based on the same general mechanism of channel opening described earlier. KI, app is the apparent inhibition constant for the inhibitor;
Thus the inhibition constant for the closed-channel conformation or state was determined from A/A(I) vs. inhibitor concentration by Equations 7a and 7b. Likewise, at a saturating ligand concentration (i.e., L>>K1), the majority of the receptors were in the open-channel state. Thus the inhibition constant for the open-channel state was determined.
The original cDNAs in pBlueScript encoding rat GluA1, 2 and 3 AMPA receptors and GluK2 kainate receptor were kindly provided by Steve Heinemann. The GluA4 DNA plasmid was kindly provided by Peter Seeburg. The GluK1 plasmid was kindly provided by Geoffrey Swanson. The cDNAs of all three NMDA receptor subunits were gifts from John Woodward. All DNA plasmids were propagated using Escherichia coli host (DH5α) and purified using QIAGEN DNA purification kits.
All of the receptors were transiently expressed in HEK-2935 cell. HEK-293S cells were maintained in Dulbecco's modified Eagle's medium (DMEM) supplemented with 10% fetal bovine serum and 1% penicillin in a 37° C., 5% CO2, humidified incubator. Receptors were transiently transfected by using calcium phosphate or lipofectamine 2000 (Invitrogen). The DNA plasmids encoding green fluorescent protein (GFP) and T-antigen (TAg) were cotransfected in HEK-293S cells. GFP was used as a transfection marker for cell recording, and TAg was cotransfected to potentiate the receptor expression at the single-cell level (51). Transfected cells were allowed to grow for 48 hour before they were used for recording.
The procedure for whole-cell current recording to assay the inhibitory property of an RNA aptamer is known to those of skill in the art and has been previously described (47). […] The extracellular buffer composition is described above (see “Receptor Preparation”).

GluA1flip = GluA1flip (Rattus norvegicus, UniProt P19490); assay: Subunit selectivity, whole-cell recording, GluA1; format: cell-based; conditions: closed- and open-channel glutamate concentrations
Method: The subunit selectivity of AF44/AF42 was assessed with individual subunits of AMPA, kainate and NMDA receptors expressed in HEK-293 cells, and was represented by A/A(I) value collected from whole-cell recording (FIG. 8A).
All of the receptors were transiently expressed in HEK-2935 cell. HEK-293S cells were maintained in Dulbecco's modified Eagle's medium (DMEM) supplemented with 10% fetal bovine serum and 1% penicillin in a 37° C., 5% CO2, humidified incubator. Receptors were transiently transfected by using calcium phosphate or lipofectamine 2000 (Invitrogen). The DNA plasmids encoding green fluorescent protein (GFP) and T-antigen (TAg) were cotransfected in HEK-293S cells. GFP was used as a transfection marker for cell recording, and TAg was cotransfected to potentiate the receptor expression at the single-cell level (51). […]
For recording of the NMDA channels, the intracellular solution contained (in mM) 140 CsCl, 1 MgCl2, 0.1 EGTA, and 10 HEPES (pH 7.2 adjusted by Mg(OH)2), while the extracellular solution contained (in mM) 135 NaCl, 5.4 KCl, 1.8 CaCl2, 10 glucose and 5 HEPES (pH 7.2 adjusted by NaOH). […] The whole-cell current was recorded using an Axopatch-200B amplifier at a cutoff frequency of 2-20 kHz by a built-in, eight-pole Bessel filter and digitized at 5-50 kHz sampling frequency using a Digidata 1322A from Axon Instruments (Molecular Devices, Sunnyvale, Calif.). […]

GluA2Qflip receptor = GluA2Qflip receptor (Rattus norvegicus, UniProt P19491); assay: Homologous competition binding assay (cold vs hot aptamer); conditions: for binding to the receptor in the presence of NBQX: competitive inhibitor, data not shown; for Kd: triplicate data sets
Excerpt: (§1) In fact, in a homologous competition binding experiment (42) in which the non-radiolabeled aptamer (or cold aptamer) was used to compete against the same, but radiolabeled, aptamer (or hot aptamer), AF44 bound to not only the closed-channel conformation (i.e., the unliganded, closed-channel receptor form) but also the open-channel conformation (FIG. 10). […] The binding results were consistent with noncompetitive sites, because these sites were supposed to be accessible through both the closed- and the open-channel conformations. […] These sites were noncompetitive type because binding to the receptor by either AF44 or AF42 or the full length AF1422 was unaffected in the presence of NBQX, a classic competitive inhibitor.
as §1, with “inhibitor (data not shown).” for “inhibitor.”

[1] = open-channel GluA2Qflip, read-out: Kd, open-channel conformation
[2] = unliganded, closed-channel GluA2Qflip, read-out: Kd, closed-channel conformation

Sequence of GluA2Qflip receptor (P19491 22-883 isoform P19491-2 limits assumed): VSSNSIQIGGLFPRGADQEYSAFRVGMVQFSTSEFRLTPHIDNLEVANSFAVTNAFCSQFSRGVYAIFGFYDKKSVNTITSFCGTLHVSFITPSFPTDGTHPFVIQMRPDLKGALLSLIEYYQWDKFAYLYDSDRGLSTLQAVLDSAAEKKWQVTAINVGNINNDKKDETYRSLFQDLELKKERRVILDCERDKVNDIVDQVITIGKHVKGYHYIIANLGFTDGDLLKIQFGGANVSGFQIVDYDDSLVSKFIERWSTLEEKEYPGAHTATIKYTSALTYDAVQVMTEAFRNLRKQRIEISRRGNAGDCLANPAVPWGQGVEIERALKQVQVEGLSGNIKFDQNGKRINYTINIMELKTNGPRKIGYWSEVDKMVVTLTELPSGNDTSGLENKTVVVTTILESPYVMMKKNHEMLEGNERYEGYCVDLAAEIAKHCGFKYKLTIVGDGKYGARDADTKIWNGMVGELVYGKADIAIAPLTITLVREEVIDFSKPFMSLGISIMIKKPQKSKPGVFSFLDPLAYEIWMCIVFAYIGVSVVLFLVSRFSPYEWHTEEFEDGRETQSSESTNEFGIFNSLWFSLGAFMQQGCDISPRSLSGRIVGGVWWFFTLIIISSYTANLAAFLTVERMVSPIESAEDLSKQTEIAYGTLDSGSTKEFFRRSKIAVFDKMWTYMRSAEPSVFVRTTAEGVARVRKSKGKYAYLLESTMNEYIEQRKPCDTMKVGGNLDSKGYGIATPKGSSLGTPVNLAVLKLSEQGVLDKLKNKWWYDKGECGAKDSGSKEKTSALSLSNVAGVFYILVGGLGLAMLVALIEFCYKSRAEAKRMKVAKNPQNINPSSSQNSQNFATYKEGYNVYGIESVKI
Sequence of GluA2Qflip AMPA receptor (P19491 22-883 isoform P19491-2 limits assumed): as above
Sequence of GluA1flip (P19490 19-907 isoform P19490-2 limits assumed): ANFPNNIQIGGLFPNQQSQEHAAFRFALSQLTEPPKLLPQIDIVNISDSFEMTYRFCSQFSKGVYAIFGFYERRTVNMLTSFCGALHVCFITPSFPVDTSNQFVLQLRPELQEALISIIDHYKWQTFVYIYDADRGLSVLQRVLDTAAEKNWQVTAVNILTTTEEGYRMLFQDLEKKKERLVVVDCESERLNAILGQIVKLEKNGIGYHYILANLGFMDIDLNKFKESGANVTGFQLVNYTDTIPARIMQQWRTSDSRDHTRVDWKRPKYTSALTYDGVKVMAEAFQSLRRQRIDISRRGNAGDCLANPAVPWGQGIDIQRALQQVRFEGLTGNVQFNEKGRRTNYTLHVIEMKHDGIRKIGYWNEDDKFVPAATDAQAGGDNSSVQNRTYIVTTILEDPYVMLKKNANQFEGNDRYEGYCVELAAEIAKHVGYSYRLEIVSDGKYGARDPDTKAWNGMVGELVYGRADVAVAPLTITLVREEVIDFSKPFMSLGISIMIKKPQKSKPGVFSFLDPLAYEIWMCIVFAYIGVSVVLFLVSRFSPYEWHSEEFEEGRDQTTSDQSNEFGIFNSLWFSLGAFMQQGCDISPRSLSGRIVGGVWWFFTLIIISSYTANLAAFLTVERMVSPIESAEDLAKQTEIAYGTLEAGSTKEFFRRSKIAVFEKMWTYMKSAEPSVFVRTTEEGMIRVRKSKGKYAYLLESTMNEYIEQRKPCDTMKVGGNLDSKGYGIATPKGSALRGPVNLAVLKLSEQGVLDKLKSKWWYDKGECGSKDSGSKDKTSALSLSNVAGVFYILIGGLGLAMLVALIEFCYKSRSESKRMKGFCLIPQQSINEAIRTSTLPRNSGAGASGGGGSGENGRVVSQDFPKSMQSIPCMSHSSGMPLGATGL

With CNC(=O)N1N=C(c2ccc(N)cc2)c2cc3c(cc2CC1C)OCO3 (stereo not shown) [BDZ-f, 1-(4-aminophenyl)-3-methylcarbamoyl-4-methyl-7,8-methylenedioxy-3,4-dihydro-5H-2,3-benzodiazepine, reference compound] the “inhibition of the non-desensitizing phase of the receptor response” value (GluA2Qflip AMPA receptor; 0.1 mM glutamate, AF44/AF42 up to 12.5 μM, BDZ-f up to 20 μM) was “uninhibited”, the “inhibition of GluA2Qflip in the subunit selectivity test, A/A(I)” value (GluA2Qflip AMPA receptor; FIG. 8A/8B, two glutamate concentrations) was “inhibited” and the Ki (GluA2Qflip AMPA receptor; KI for the closed-channel conformation, 100 μM glutamate, -60 mV, 22 °C) was 3800 ± 400 nM. The Ki (GluA2Qflip AMPA receptor; KI for the open-channel conformation, 3 mM glutamate) was 5400 ± 800 nM and the “effect on GluA1, A/A(I)” value (GluA1flip) was “inhibited”.

With “AF20: truncated AF1422 containing only the 5' stem loop, SEQ ID NO: 7 (GGGAGAAUUCAACUGCCAUC; listed as RNA, chemistry not fully specified)” the “inhibition by A/A(I), ratio of whole-cell current amplitude in absence and presence of aptamer” value (shortened to “inhibition by A/A(I), ratio”) (GluA2Qflip AMPA receptor; 100 μM glutamate) was “not sufficient to act either alone as an inhibitor or together with AF42 as an inhibitory pair”.

In the case of “AF38: AF42 with terminal loop removed, SEQ ID NO: 6 (GGGUCGUUAGAGCAUCAGUACACCAACGGUGCGAGCCC; listed as RNA, chemistry not fully specified)”, the “inhibition by A/A(I), ratio” value (GluA2Qflip AMPA receptor; 100 μM glutamate) is reported as “total loss of function”.

“AF42: 42-nucleotide RNA truncated from AF1422, SEQ ID NO: 5 (GGGAACGGUGCCAGUCCGAAACGGAUCGUUAGAGCAUCAGUA; listed as RNA, chemistry not given here)” was tested, and the “inhibition by A/A(I), ratio” value (GluA2Qflip AMPA receptor; 100 μM glutamate) was “did not render any inhibition”, the “binding to the receptor in the presence of NBQX” value (shortened to “binding to the receptor”) (GluA2Qflip receptor) was “unaffected” and the Kd (GluA2Qflip receptor; [1]) was 44 ± 11 nM. For the same molecule, the Kd (GluA2Qflip receptor; [2]) was 57 ± 21 nM.

With “AF44: 44-nucleotide RNA truncated from AF1422, G22 replaced with A22, SEQ ID NO: 4 (GGGAGAAUUCAACUGCCACGGAUAAUAGCCAAUACUACAACCGU; listed as RNA, chemistry not given here)” the “inhibition by A/A(I), ratio” value (GluA2Qflip AMPA receptor; 100 μM glutamate) was “did not render any inhibition”, the “binding to the receptor” value (GluA2Qflip receptor) was “unaffected” and the Kd (GluA2Qflip receptor; [1]) was 48 ± 13 nM. The Kd (GluA2Qflip receptor; [2]) was 44 ± 18 nM.

B1: AF78: truncated sequence of AF1422, SEQ ID NO: 3, lacking the 5' stem-loop (nucleic acid)
chain: GGGAGCCAGAAGUGUAAUAGCCAACGGUGCCAGUCCGAAACGGAUCGUUAGAGCAUCAGUACUACAAGCUUCUGGACU
modifications: listed as RNA, chemistry not fully specified
With B1 the “inhibition by A/A(I), ratio” value (GluA2Qflip AMPA receptor; 100 μM glutamate) was “non-inhibitory”.

B2: AF1422: RNA aptamer, SEQ ID NO: 1, most enriched SELEX sequence binding closed-channel GluA2Qflip (nucleic acid)
chain: GGGAGAAUUCAACUGCCAUCUAGGCAGAAGUGUAAUAGCCAACGGUGCCAGUCCGAAACGGAUCGUUAGAGCAUCAGUACUACAAGCUUCUGGACUCGGU
modifications: listed as RNA, chemistry not given here
B2 was tested, and the “inhibition by A/A(I), ratio” value (GluA2Qflip AMPA receptor; 100 μM glutamate) was “one of the most potent inhibitors”, the “inhibition of closed-channel versus open-channel conformation” value (GluA2Qflip AMPA receptor; low (100 μM) vs high (3 mM) glutamate) was “inhibited the closed-channel, preferentially over the open-channel” and the “binding to the receptor” value (GluA2Qflip receptor) was “unaffected”.
